This is an account of results in patent US11952388B2, “Crystal form of tri-cycle compound and application thereof” (FUJIAN AKEYLINK BIOTECHNOLOGY CO., LTD., priority 2018, dated 2024).

Series [1] deals with proteins in human plasma. The series is described as follows: Plasma protein binding rate (equilibrium dialysis). The format is in vitro ADME. The procedure:
Objectives of Experiment: to determine the binding rate of test compound to proteins in human and CD-1 mouse plasma
Experimental operation: 796 μL of blank plasma was taken from human and CD-1 mouse, and 4 μL of test compound working solution (400 μM) or warfarin working solution (400 μM) was added to make the final concentrations of both test compound and warfarin in the plasma sample 2 μM. The sample was mixed thoroughly. The final concentration of DMSO in the organic phase was 0.5%; 50 μt of plasma samples of test compound and warfarin was pipetted into the sample receiving plate (in triplicate), and immediately the corresponding volume of blank plasma or buffer was added to make the final volume of each sample 100 μL and the volume ratio of plasma:dialysis buffer 1:1. Then 400 μL of stop solution is added to these samples. These samples would be used as TO samples for determination of recovery and stability. […] All samples were analyzed by LC/MS/MS after protein precipitation, and the protein binding rate and recovery rate was calculated with the formula: % Unbound (unbound rate)=100*FC/TC, % Bound (bound rate)=100-% Unbound, % Recovery (recovery rate)=100*(FC+TC)/T0.

A short description of series [2]: Pharmacokinetics of oral administration and intravenous injection in Balb/c mice. As to conditions: female, mouse, plasma. The format is in vivo. The method, then:
1. Study on the Pharmacokinetics of Oral Administration and Intravenous Injection of the Compound Represented by Formula (I) in Balb/c Mice The compound represented by formula (I) was mixed with 5% DMSO/55% polyethylene glycol 400/40% aqueous solution, vortexed and sonicated to obtain an approximately clear solution of 1 mg/mL, which was then filtered by a microporous membrane for later use. Female Balb/c mice aged 7 to 10 weeks were selected and the candidate compound solution was administered intravenously at a dose of 1 mg/kg. The compound represented by formula (I) was mixed with 10% solutol (polyethylene glycol-15 hydroxystearate) aqueous solution, vortexed and sonicated to obtain an approximately clear solution of 1 mg/mL, which was then filtered through a microporous membrane for later use. Female Balb/c mice aged 7 to 10 weeks were selected and the candidate compound solution was orally administered at a dose of 10 mg/kg. Whole blood was collected at a certain period of time to prepare plasma, drug concentration was analyzed by LC-MS/MS method, and pharmacokinetic parameters was calculated by Phoenix WinNonlin software (Pharsight, USA). Note: T1/2 means half-life; Vdss means apparent volume of distribution; Cl means clearance rate; AUC0_last means area below the drug-time curve; Tmax means peak time; Cmax means peak concentration; F % means oral bioavailability; iv means intravenous injection; PO means oral administration; mpk means mg/kg.

In series [3] the test system is hepatitis B virus. The series is described as follows: In vivo drug efficacy, AAV/HBV mouse model. The settings on record: AAV/HBV mouse model, 15, 50, 150 mg/kg BID PO, 28 days. The method, then: FIG. 7: The level of Hepatitis B virus DNA in plasma; broken line 1 means blank control, 10% solutol aqueous solution was administered quaque die (QD), per os (PO); broken line 2 means that WX-325 was administrated at a dose of 15 mg/kg bis in die (BID) at an interval of 8 hours, per os (PO); the broken line 3 means that WX-325 was administrated at a dose of 50 mg/kg bis in die (BID) at an interval of 8 hours, per os (PO); broken line 5 means that WX-325 was administrated at a dose of 150 mg/kg bis in die (BID) at an interval of 8 hours, per os (PO); broken line 6 means that tenofovir (TDF) of the positive compound was administrated at a dose of 15 mg/kg bis in die (BID) at an interval of 8 hours, per os (PO); LLOQ means lower limit of detection; Note: WX-325 in FIG. 7 means the compound represented by formula (I) of the present invention. […]
Experimental operation: The day of the first administration was designated as day 0, the day before administration was designated as day −1, the day after administration was designated as day 1, and so on. […] The content of HBV DNA, HBeAg and HBsAg were detected using the serum. […] Both drugs were administered for 28 days, and blood samples were taken on day 3, 7, 10 and 28 after administration, and the level of HBV DNA in plasma was detected by qPCR. […]

Read-outs that look alike come from different tables or passages of the source.

What is called half-life is the time in which the quantity being followed falls by half. The low end stands for rapid decline, the high end for slow decline. As a reminder, the Cmax is the peak of the concentration-time curve. What is called Tmax is the time at which the peak concentration occurs. A word on the bioavailability: it is dose-corrected exposure relative to a reference, in per cent. A low value points to little systemic uptake.

Consider `Cc1cc2n(c1)S(=O)(=O)c1ccc(C(=O)NCC[C@H]3COCCO3)cc1NC2=O` [compound represented by formula (I)], for which the “binding rate to plasma proteins (conclusion in words)” value in series [1] is “lower binding rate”. Besides, the “Binding rate of plasma protein” value in series [1] (2 μM) was 81%. In addition, in series [2] (1 mg/kg, iv 1 mpk), the clearance came out at 8.5 mL/min/kg and the half-life is 72 min. For the same compound, in series [2] (1 mg/kg, iv 1 mpk, read-out: AUC0-last), the AUC(0-t) was 4.67 µM·h. Also, in series [2] (1 mg/kg, iv 1 mpk, read-out: Vdss), the Vd turned out to be 0.45 L/kg. Further, in series [2] (10 mg/kg, po 10 mpk), the Cmax came out at 19.9 µM, the Tmax was 30 min and the bioavailability was determined as 70%. In series [2] (10 mg/kg, po 10 mpk, read-out: AUC0-24h), the AUC(0-t) stood at 32.5 µM·h. Further, the “in vivo efficacy, HBV DNA in plasma and liver (conclusion in words)” value in series [3] is “good in vivo efficacy and a dose-dependent effect”.
